Assay results as given in ChEMBL document CHEMBL3885881, “DrugMatrix”.

Species on record: Rattus norvegicus
Test: DrugMatrix - Regimen: Daily Repeat
Assay type: toxicity, organism-based, Sprague-Dawley
Design: regimen Daily Repeat, gender Male, age 6-8 weeks
Conditions: in vivo, po, route oral GAVAGE, […]; for ABSOLUTE BASOPHIL / ABSOLUTE EOSINOPHIL / ABSOLUTE LYMPHOCYTE / ABSOLUTE MONOCYTE / ABSOLUTE SEGMENTED NEUTROPHIL / BASOPHIL / EOSINOPHIL / ERYTHROCYTE COUNT / HEMATOCRIT / HEMOGLOBIN / LEUKOCYTE COUNT / LYMPHOCYTE / MEAN CORPUSCULAR HEMOGLOBIN / MEAN CORPUSCULAR HEMOGLOBIN CONCENTRATION / MEAN CORPUSCULAR VOLUME / MONOCYTE / NEUTROPHIL / NUCLEATED RED BLOOD CELLS / PLATELET COUNT: tissue Blood; for ALANINE AMINOTRANSFERASE / ALBUMIN / ALKALINE PHOSPHATASE / ASPARTATE AMINOTRANSFERASE / BLOOD UREA NITROGEN / CARBON DIOXIDE / CHLORIDE / CHOLESTEROL / CREATINE PHOSPHOKINASE / CREATININE / GLUCOSE / LACTATE DEHYDROGENASE / LIPASE / PHOSPHORUS / POTASSIUM / SODIUM / TOTAL BILIRUBIN / TOTAL PROTEIN / URIC ACID: tissue Plasma
[1] = 500 mg/kg, 72 h, dose level Low, time 3 day
[2] = 500 mg/kg, 120 h, dose level Low, time 5 day
[3] = 1100 mg/kg, 72 h, dose level High, time 3 day
[4] = 1100 mg/kg, 120 h, dose level High, time 5 day

CCOC(=O)c1ccc(N)cc1 [BENZOCAINE]
ABSOLUTE BASOPHIL [1]: 0 CELLS/uL | ABSOLUTE EOSINOPHIL [1]: 229 CELLS/uL | ABSOLUTE LYMPHOCYTE [1]: 17082.33 CELLS/uL | ABSOLUTE MONOCYTE [1]: 210.67 CELLS/uL | ABSOLUTE SEGMENTED NEUTROPHIL [1]: 1644.67 CELLS/uL | BASOPHIL [1]: 0% | EOSINOPHIL [1]: 1% | ERYTHROCYTE COUNT [1]: 5.35 x10E6/uL | HEMATOCRIT [1]: 35.4% | HEMOGLOBIN [1]: 14.2 G/DL | LEUKOCYTE COUNT [1]: 19.17 x10E3/uL | LYMPHOCYTE [1]: 89.33% | MEAN CORPUSCULAR HEMOGLOBIN [1]: 26.5 pg | MEAN CORPUSCULAR HEMOGLOBIN CONCENTRATION [1]: 40.13 G/DL | MEAN CORPUSCULAR VOLUME [1]: 66.13 fL | MONOCYTE [1]: 1% | NEUTROPHIL [1]: 8.67% | NUCLEATED RED BLOOD CELLS [1]: 0 /100WBC | PLATELET COUNT [1]: 1441 x10E3/uL | ALANINE AMINOTRANSFERASE [1]: 64 u/L | ALBUMIN [1]: 4.2 G/DL | ALKALINE PHOSPHATASE [1]: 444.67 u/L | ASPARTATE AMINOTRANSFERASE [1]: 108.33 u/L | BLOOD UREA NITROGEN [1]: 9.67 mg/dL | CARBON DIOXIDE [1]: 29 mmol/L | CHLORIDE [1]: 102.33 MEQ/L | CHOLESTEROL [1]: 59.33 mg/dL | CREATINE PHOSPHOKINASE [1]: 648.33 u/L | CREATININE [1]: 0.35 mg/dL | GLUCOSE [1]: 175.67 mg/dL | LACTATE DEHYDROGENASE [1]: 218.67 u/L | LIPASE [1]: 12.33 u/L | PHOSPHORUS [1]: 12.33 mg/dL | POTASSIUM [1]: 6.58 MEQ/L | SODIUM [1]: 144.73 MEQ/L | TOTAL BILIRUBIN [1]: 0.2 mg/dL | TOTAL PROTEIN [1]: 5.7 G/DL | URIC ACID [1]: 1.73 mg/dL | ABSOLUTE BASOPHIL [2]: 0 CELLS/uL | ABSOLUTE EOSINOPHIL [2]: 0 CELLS/uL | ABSOLUTE LYMPHOCYTE [2]: 16058.33 CELLS/uL | ABSOLUTE MONOCYTE [2]: 107.33 CELLS/uL | ABSOLUTE SEGMENTED NEUTROPHIL [2]: 2201 CELLS/uL | BASOPHIL [2]: 0% | EOSINOPHIL [2]: 0% | ERYTHROCYTE COUNT [2]: 4.82 x10E6/uL | HEMATOCRIT [2]: 32.4% | HEMOGLOBIN [2]: 13.2 G/DL | LEUKOCYTE COUNT [2]: 18.37 x10E3/uL | LYMPHOCYTE [2]: 87% | MEAN CORPUSCULAR HEMOGLOBIN [2]: 27.47 pg | MEAN CORPUSCULAR HEMOGLOBIN CONCENTRATION [2]: 40.77 G/DL | MEAN CORPUSCULAR VOLUME [2]: 67.4 fL | MONOCYTE [2]: 0.67% | NEUTROPHIL [2]: 12.33% | NUCLEATED RED BLOOD CELLS [2]: 0.67 /100WBC | PLATELET COUNT [2]: 1368 x10E3/uL | ALANINE AMINOTRANSFERASE [2]: 53.67 u/L | ALBUMIN [2]: 4.13 G/DL | ALKALINE PHOSPHATASE [2]: 386 u/L | ASPARTATE AMINOTRANSFERASE [2]: 98 u/L | BLOOD UREA NITROGEN [2]: 13 mg/dL | CARBON DIOXIDE [2]: 29 mmol/L | CHLORIDE [2]: 104.33 MEQ/L | CHOLESTEROL [2]: 48.33 mg/dL | CREATINE PHOSPHOKINASE [2]: 364.67 u/L | CREATININE [2]: 0.17 mg/dL | GLUCOSE [2]: 150 mg/dL | LACTATE DEHYDROGENASE [2]: 646.67 u/L | LIPASE [2]: 11 u/L | PHOSPHORUS [2]: 10.6 mg/dL | POTASSIUM [2]: 6.6 MEQ/L | SODIUM [2]: 143.27 MEQ/L | TOTAL BILIRUBIN [2]: 0.3 mg/dL | TOTAL PROTEIN [2]: 5.77 G/DL | URIC ACID [2]: 1.63 mg/dL | ABSOLUTE BASOPHIL [3]: 0 CELLS/uL | ABSOLUTE EOSINOPHIL [3]: 55.33 CELLS/uL | ABSOLUTE LYMPHOCYTE [3]: 17429 CELLS/uL | ABSOLUTE MONOCYTE [3]: 386.67 CELLS/uL | ABSOLUTE SEGMENTED NEUTROPHIL [3]: 3095.67 CELLS/uL | BASOPHIL [3]: 0% | EOSINOPHIL [3]: 0.33% | ERYTHROCYTE COUNT [3]: 4.95 x10E6/uL | HEMATOCRIT [3]: 33.3% | HEMOGLOBIN [3]: 13.8 G/DL | LEUKOCYTE COUNT [3]: 20.97 x10E3/uL | LYMPHOCYTE [3]: 81.67% | MEAN CORPUSCULAR HEMOGLOBIN [3]: 27.93 pg | MEAN CORPUSCULAR HEMOGLOBIN CONCENTRATION [3]: 41.43 G/DL | MEAN CORPUSCULAR VOLUME [3]: 67.4 fL | MONOCYTE [3]: 1.33% | NEUTROPHIL [3]: 16.67% | NUCLEATED RED BLOOD CELLS [3]: 0.33 /100WBC | PLATELET COUNT [3]: 1424.33 x10E3/uL | ALANINE AMINOTRANSFERASE [3]: 72 u/L | ALBUMIN [3]: 4.03 G/DL | ALKALINE PHOSPHATASE [3]: 546.33 u/L | ASPARTATE AMINOTRANSFERASE [3]: 93.33 u/L | BLOOD UREA NITROGEN [3]: 10.33 mg/dL | CARBON DIOXIDE [3]: 31 mmol/L | CHLORIDE [3]: 104.33 MEQ/L | CHOLESTEROL [3]: 61 mg/dL | CREATINE PHOSPHOKINASE [3]: 361.67 u/L | CREATININE [3]: 0.14 mg/dL | GLUCOSE [3]: 138.67 mg/dL | LACTATE DEHYDROGENASE [3]: 171 u/L | LIPASE [3]: 11.33 u/L | PHOSPHORUS [3]: 11.13 mg/dL | POTASSIUM [3]: 6.37 MEQ/L | SODIUM [3]: 144.8 MEQ/L | TOTAL BILIRUBIN [3]: 0.3 mg/dL | TOTAL PROTEIN [3]: 5.57 G/DL | URIC ACID [3]: 1.27 mg/dL | ABSOLUTE BASOPHIL [4]: 0 CELLS/uL | ABSOLUTE EOSINOPHIL [4]: 0 CELLS/uL | ABSOLUTE LYMPHOCYTE [4]: 14423.33 CELLS/uL | ABSOLUTE MONOCYTE [4]: 145 CELLS/uL | ABSOLUTE SEGMENTED NEUTROPHIL [4]: 2531.67 CELLS/uL | BASOPHIL [4]: 0% | EOSINOPHIL [4]: 0% | ERYTHROCYTE COUNT [4]: 4.51 x10E6/uL | HEMATOCRIT [4]: 32.4% | HEMOGLOBIN [4]: 13.97 G/DL | LEUKOCYTE COUNT [4]: 17.1 x10E3/uL | LYMPHOCYTE [4]: 84.33% | MEAN CORPUSCULAR HEMOGLOBIN [4]: 31.07 pg | MEAN CORPUSCULAR HEMOGLOBIN CONCENTRATION [4]: 43.13 G/DL | MEAN CORPUSCULAR VOLUME [4]: 71.97 fL | MONOCYTE [4]: 1% | NEUTROPHIL [4]: 14.67% | NUCLEATED RED BLOOD CELLS [4]: 1.33 /100WBC | PLATELET COUNT [4]: 1244.67 x10E3/uL | ALANINE AMINOTRANSFERASE [4]: 56.67 u/L | ALBUMIN [4]: 4.2 G/DL | ALKALINE PHOSPHATASE [4]: 347.67 u/L | ASPARTATE AMINOTRANSFERASE [4]: 84 u/L | BLOOD UREA NITROGEN [4]: 13.33 mg/dL | CARBON DIOXIDE [4]: 32.67 mmol/L | CHLORIDE [4]: 102.33 MEQ/L | CHOLESTEROL [4]: 58 mg/dL | CREATINE PHOSPHOKINASE [4]: 180 u/L | CREATININE [4]: 0.13 mg/dL | GLUCOSE [4]: 145.33 mg/dL | LACTATE DEHYDROGENASE [4]: 146.67 u/L | LIPASE [4]: 11 u/L | PHOSPHORUS [4]: 11.13 mg/dL | POTASSIUM [4]: 6.79 MEQ/L | SODIUM [4]: 143.83 MEQ/L | TOTAL BILIRUBIN [4]: 0.37 mg/dL | TOTAL PROTEIN [4]: 5.9 G/DL | URIC ACID [4]: 1.53 mg/dL
